According to PubChem BioAssay AID2060601 (Molecular Pharmacology Branch, DTP, NCI, 2025):
Values joined by “and” are separate entries in the source; they are usually repeats but may differ in a detail not shown here. Equal values may be shown once.

System: 874868-142-R-J2-PDC complex spheroids, growth % test/control
Assay: Anticancer human tumor 874868-142-R-J2-PDC patient-derived head and neck squamous carcinoma cell line growth inhibition [CLK]
Details: for viability, T/C: stronger effect = lower value
From the text: A high-throughput screen of multi-cell type tumor spheroids was designed to identify active combinations of […] and targeted small molecules. Complex spheroids include a stromal component modeled by human endothelial cells (HUVEC) and fibroblasts modeled by human mesenchymal stem cells (MSCs). The concentration ranges selected for each drug and investigational agent were based upon clinically achievable concentrations if the clinical Cmax of the agent was known.
Compounds. The drugs and investigational agents: cirtuvivint (SM08502; NSC835563), CC-671 (NSC850746), vemurafenib (NSC761431), tapotoclax (NSC804041), sotorasib (NSC818433), adagrasib (NSC831453), MRTX-1133 (NSC836407), BAY2416964 (NSC825713), copanlisib (NSC816437), inavolisib (NSC800729), abemaciclib (NSC768073), osimertinib (NSC779217), entinostat (NSC756642), eltanexor (KPT-8602, NSC794443), venetoclax (NSC766270), ceralasertib (NSC777638), bortezomib (NSC756655), olaparib (NSC753686), talazoparib (NSC767125), alisertib (NSC759677), peposertib (NSC802822), gemcitabine (NSC613327), 5-fluorouracil (NSC19893), SN-38 (NSC673596), oxaliplatin (NSC266046), paclitaxel (NSC125973), and doxorubicin (NSC123127), were obtained from the National Cancer Institute (NCI) Developmental Therapeutics Program Chemical Repository. The FDA-approved anticancer drug set is available from the Developmental Therapeutics Program at https://dtp.cancer.gov/organization/dscb/obtaining/available plates.htm. […] The stock solutions were prepared in dimethyl sulfoxide (DMSO, Sigma-Aldrich, St. Louis, MO, cat. D2650), except for the platinum complexes which were prepared in saline (Quality Biological, Gaithersburg, MD, cat. 114-055-101), at 800-fold the tested concentration and stored at -70 degrees C prior to their use. All drugs and investigational agents were tested over a range starting from a high concentration at or near the clinical Cmax and decreasing in half-log increments. If the clinical Cmax for an agent had not been determined, the highest concentration tested was 10 microM.
Cell Culture. All cells were maintained in an incubator at 37 degrees C and 5% CO2 with 95% humidity. The PDC lines were cultured according to standard operating procedures established by the NCI PDMR. Briefly, all PDCs were thawed and cultured in Matrigel-coated flasks prepared with a working solution of 1X Ham's F-12 nutrient mix, without supplementation (Invitrogen, Waltham, MA, cat. 11765054), 100 U/mL penicillin-streptomycin (Invitrogen, cat. 15140122), and 2.5% Matrigel (Corning Inc., Corning, NY, cat. 354248) for the first three passages. The 947758-054-R-J2-PDC line was cultured in 6B/Colon 1A media, which includes advanced DMEM/F-12 (Thermo Fisher Scientific, cat. 12634028), 10 mM HEPES (Thermo Fisher Scientific, cat. 15630080), 1X GlutaMAX supplement (Thermo Fisher Scientific, cat. 35050061), 0.1 mg/mL primocin (InvivoGen, cat. ant-pm-2), 10% defined fetal bovine serum, heat inactivated (HyClone Laboratories Inc., cat. SH30070.03HI), 1.25 mM N-Acetyl-L-cysteine (Sigma-Aldrich, cat. A9165), 10 mM nicotinamide (Sigma-Aldrich, cat. N0636), 1X B-27 supplement (Thermo Fisher Scientific, cat. 17504044), 1X N-2 supplement (Thermo Fisher Scientific, cat. 17502048), and 10 microM Y-27632 dihydrochloride (Tocris Bioscience, cat. 1254). The 876862-298-R-J1-PDC was cultured in 6E media, which includes all 6B/Colon 1A media components plus 50% L-WRN conditioned media (ATCC, cat. CRL-3276), 50 ng/mL recombinant human EGF recombinant protein (hEGF; Thermo Fisher Scientific, cat. PHG0311), 10 ng/mL recombinant human fibroblast growth factor 10 (hGFG-10; PeproTech, cat. 100-26), 1 ng/mL recombinant human fibroblast growth factor 2 (hFGF-2; PeproTech, cat. 100-18B), and 1 µM prostaglandin E2 (PGE2; Tocris, cat. 2296). The 227483-062-R1-J1-PDC line was cultured in Panc media, containing all 6E components except hFGF-2, with the addition of 500 nM SB-431542 (Selleckchem, cat. S1067) and 10 nM gastrin (Tocris, cat. 3006). […]

[1] = curve of first compound, second compound 0.0316 µM
[2] = curve of first compound, second compound 0.1 µM
[3] = curve of first compound, second compound 0.316 µM
[4] = curve of first compound, second compound 1 µM
[5] = curve of first compound, second compound 3.16 µM
[6] = curve of first compound, second compound 10 µM
[7] = second compound 0.0316 µM, first compound 0.0316 µM
[8] = second compound 0.0316 µM, first compound 0.1 µM
[9] = second compound 0.0316 µM, first compound 0.316 µM
[10] = second compound 0.0316 µM, first compound 1 µM
[11] = second compound 0.0316 µM, first compound 3.16 µM
[12] = second compound 0.0316 µM, first compound 10 µM
[13] = second compound 0.1 µM, first compound 0.0316 µM
[14] = second compound 0.1 µM, first compound 0.1 µM
[15] = second compound 0.1 µM, first compound 0.316 µM
[16] = second compound 0.1 µM, first compound 1 µM
[17] = second compound 0.1 µM, first compound 3.16 µM
[18] = second compound 0.1 µM, first compound 10 µM
[19] = second compound 0.316 µM, first compound 0.0316 µM
[20] = second compound 0.316 µM, first compound 0.1 µM
[21] = second compound 0.316 µM, first compound 0.316 µM
[22] = second compound 0.316 µM, first compound 1 µM
[23] = second compound 0.316 µM, first compound 3.16 µM
[24] = second compound 0.316 µM, first compound 10 µM
[25] = second compound 1 µM, first compound 0.0316 µM
[26] = second compound 1 µM, first compound 0.1 µM
[27] = second compound 1 µM, first compound 0.316 µM
[28] = second compound 1 µM, first compound 1 µM
[29] = second compound 1 µM, first compound 3.16 µM
[30] = second compound 1 µM, first compound 10 µM
[31] = second compound 3.16 µM, first compound 0.0316 µM
[32] = second compound 3.16 µM, first compound 0.1 µM
[33] = second compound 3.16 µM, first compound 0.316 µM
[34] = second compound 3.16 µM, first compound 1 µM
[35] = second compound 3.16 µM, first compound 3.16 µM
[36] = second compound 3.16 µM, first compound 10 µM
[37] = second compound 10 µM, first compound 0.0316 µM
[38] = second compound 10 µM, first compound 0.1 µM
[39] = second compound 10 µM, first compound 0.316 µM
[40] = second compound 10 µM, first compound 1 µM
[41] = second compound 10 µM, first compound 3.16 µM
[42] = second compound 10 µM, first compound 10 µM
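Further: spheroids exposed to the compounds for 7 days.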

Compound: COC1C=CCC(C)C(C)S(=O)(=O)NC(=O)c2ccc3c(c2)N(CC2CCC21)CC1(CCCc2cc(Cl)ccc21)CO3 (stereo not given) + CNC(=O)c1ccc(Nc2nc(OC3CCCC3)c3c(-c4ccc5nc(C)oc5c4)c[nH]c3n2)c(OC)c1
- IC50 [1]: 706 nM
- IC50 [2]: 751 nM
- IC50 [3]: 79.6 nM
- IC50 [4]: < 31.6 nM
- IC50 [5]: < 31.6 nM
- IC50 [6]: < 31.6 nM
- viability, T/C [7]: 92.5%
- viability, T/C [8]: 87.4%
- viability, T/C [9]: 64.6%
- viability, T/C [10]: 42.1%
- viability, T/C [11]: 28.4%
- viability, T/C [12]: 15.8%
- viability, T/C [13]: 92.2%
- viability, T/C [14]: 68%
- viability, T/C [15]: 57.1%
- viability, T/C [16]: 56.6%
- viability, T/C [17]: 28%
- viability, T/C [18]: 13.2%
- viability, T/C [19]: 58.7%
- viability, T/C [20]: 49.1%
- viability, T/C [21]: 35.6%
- viability, T/C [22]: 29.1%
- viability, T/C [23]: 25%
- viability, T/C [24]: 14.3%
- viability, T/C [25]: 44.4%
- viability, T/C [26]: 34.8%
- viability, T/C [27]: 24.9%
- viability, T/C [28]: 18.6%
- viability, T/C [29]: 14.8%
- viability, T/C [30]: 16.8%
- viability, T/C [31]: 36.9%
- viability, T/C [32]: 28.7%
- viability, T/C [33]: 25.7%
- viability, T/C [34]: 19.7%
- viability, T/C [35]: 18.5%
- viability, T/C [36]: 16.9%
- viability, T/C [37]: 40.1%
- viability, T/C [38]: 30.4%
- viability, T/C [39]: 32.8%
- viability, T/C [40]: 17.4%
- viability, T/C [41]: 20.6%
- viability, T/C [42]: 14.9%

Compound: CC1COCCN1c1cc(C2(S(C)(=N)=O)CC2)nc(-c2ccnc3[nH]ccc23)n1 (stereo not given) + CNC(=O)c1ccc(Nc2nc(OC3CCCC3)c3c(-c4ccc5nc(C)oc5c4)c[nH]c3n2)c(OC)c1
- IC50 [1]: 5960 nM
- IC50 [2]: 2860 nM
- IC50 [3]: 404 nM
- IC50 [4]: < 31.6 nM
- IC50 [5]: < 31.6 nM
- IC50 [6]: < 31.6 nM
- viability, T/C [7]: 125%
- viability, T/C [8]: 96.2%
- viability, T/C [9]: 91.9%
- viability, T/C [10]: 69.8%
- viability, T/C [11]: 53.9%
- viability, T/C [12]: 45.9%
- viability, T/C [13]: 101%
- viability, T/C [14]: 79.1%
- viability, T/C [15]: 73.1%
- viability, T/C [16]: 55%
- viability, T/C [17]: 54.8%
- viability, T/C [18]: 39%
- viability, T/C [19]: 51.2%
- viability, T/C [20]: 53.8%
- viability, T/C [21]: 53%
- viability, T/C [22]: 40.2%
- viability, T/C [23]: 37.7%
- viability, T/C [24]: 35.6%
- viability, T/C [25]: 44.7%
- viability, T/C [26]: 47.6%
- viability, T/C [27]: 50.8%
- viability, T/C [28]: 35%
- viability, T/C [29]: 21.8%
- viability, T/C [30]: 23.1%
- viability, T/C [31]: 42.5%
- viability, T/C [32]: 46.5%
- viability, T/C [33]: 44.4%
- viability, T/C [34]: 34.9%
- viability, T/C [35]: 34.6%
- viability, T/C [36]: 27.8%
- viability, T/C [37]: 44.1%
- viability, T/C [38]: 37.9%
- viability, T/C [39]: 41.7%
- viability, T/C [40]: 29.6%
- viability, T/C [41]: 26.6%
- viability, T/C [42]: 17.2%

Compound: Cn1ncnc1[C@H]1c2n[nH]c(=O)c3cc(F)cc(c23)N[C@@H]1c1ccc(F)cc1
- viability, T/C (compound 0.000316 µM): 115% and 86.3%
- viability, T/C (compound 0.001 µM): 96.7% and 94.6%
- viability, T/C (compound 0.00316 µM): 93.1% and 98.7%
- viability, T/C (compound 0.01 µM): 92.4% and 87.5%
- viability, T/C (compound 0.0316 µM): 73.8% and 87%
- viability, T/C (compound 0.1 µM): 69.2% and 77.6%
- IC50 (curve of compound): > 100 nM

Compound: CCCS(=O)(=O)Nc1ccc(F)c(C(=O)c2c[nH]c3ncc(-c4ccc(Cl)cc4)cc23)c1F
- viability, T/C (compound 0.0316 µM): 115% and 95.8%
- viability, T/C (compound 0.1 µM): 113% and 129%
- viability, T/C (compound 0.316 µM): 116% and 105%
- viability, T/C (compound 1 µM): 111% and 136%
- viability, T/C (compound 3.16 µM): 120% and 141%
- viability, T/C (compound 10 µM): 85.7% and 73.7%
- IC50 (curve of compound): > 10000 nM

Compound: COc1cccc2c1C(=O)c1c(O)c3c(c(O)c1C2=O)CC(O)(C(=O)CO)CC3OC1CC(N)C(O)C(C)O1 (stereo not given) + CN1CCN(c2cc(C(=O)Nc3cc4cc(-c5cnn(C)c5)ccc4cn3)ccn2)CC1
- IC50 [1]: 87.3 nM
- IC50 [2]: 46.7 nM
- IC50 [3]: < 31.6 nM
- IC50 [4]: < 31.6 nM
- IC50 [5]: < 31.6 nM
- IC50 [6]: < 31.6 nM
- viability, T/C [7]: 63.8%
- viability, T/C [8]: 45.1%
- viability, T/C [9]: 28.2%
- viability, T/C [10]: 1.26%
- viability, T/C [11]: 0.13%
- viability, T/C [12]: 0.12%
- viability, T/C [13]: 55.6%
- viability, T/C [14]: 38.7%
- viability, T/C [15]: 20.3%
- viability, T/C [16]: 1.08%
- viability, T/C [17]: 0.17%
- viability, T/C [18]: 0.22%
- viability, T/C [19]: 14.6%
- viability, T/C [20]: 12.6%
- viability, T/C [21]: 3.13%
- viability, T/C [22]: 0.26%
- viability, T/C [23]: 0.13%
- viability, T/C [24]: 0.18%
- viability, T/C [25]: 0.21%
- viability, T/C [26]: 0.85%
- viability, T/C [27]: 0.41%
- viability, T/C [28]: 0.34%
- viability, T/C [29]: 0.12%
- viability, T/C [30]: 0.14%
- viability, T/C [31]: 0.22%
- viability, T/C [32]: 0.15%
- viability, T/C [33]: 2.26%
- viability, T/C [34]: 0.14%
- viability, T/C [35]: 0.21%
- viability, T/C [36]: 0.12%
- viability, T/C [37]: 0.07%
- viability, T/C [38]: 0.94%
- viability, T/C [39]: 0.15%
- viability, T/C [40]: 0.12%
- viability, T/C [41]: 0.14%
- viability, T/C [42]: 0.67%
